{"source": "paper PMC2721771", "about": "(Purinergic Signalling, 2008)", "key": {"[1]": {"test": "Storage stability of the trimethylstannyl precursor", "type": "physicochemical", "conditions": "−8 °C for several months"}, "[2]": {"biological_target": "T1, rat A3 adenosine receptor (Rattus norvegicus, UniProt P28647)", "T1 sequence (P28647 1-320)": "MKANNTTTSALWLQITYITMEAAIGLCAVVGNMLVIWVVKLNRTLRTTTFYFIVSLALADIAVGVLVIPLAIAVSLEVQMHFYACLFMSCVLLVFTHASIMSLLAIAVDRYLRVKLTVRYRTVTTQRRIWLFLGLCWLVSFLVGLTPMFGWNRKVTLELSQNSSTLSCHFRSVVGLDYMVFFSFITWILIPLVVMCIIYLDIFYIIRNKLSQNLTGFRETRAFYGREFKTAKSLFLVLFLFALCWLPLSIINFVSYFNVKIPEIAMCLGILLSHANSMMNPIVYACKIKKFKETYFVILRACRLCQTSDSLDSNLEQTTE", "type": "binding", "conditions": "vs [125I]MRS1898 0.1 nM, rA3AR in CHO membranes, mean ± SEM"}, "hA3AR": {"biological_target": "hA3AR", "conditions": "cited from earlier work"}, "rA3AR": {"biological_target": "rA3AR", "conditions": "cited from earlier work"}, "mouse A3AR": {"tested_on": "mouse A3AR", "conditions": "cited from earlier work"}, "rA1AR": {"biological_target": "rA1AR", "conditions": "cited from earlier work"}}, "note": "Where two headings read alike, the source gives them in different places."}
{"smiles": "CNC(=O)[C@]12C[C@@H]1[C@@H](n1cnc3c(NCc4cccc([125I])c4)nc(Cl)nc31)[C@H](O)[C@@H]2O", "note": "[Compound 10]", "values": [{"measurement": "stability upon storage", "setting": "[1]", "value": "stable"}]}
{"smiles": "CCCOC(=O)c1c(-c2ccccc2)nc(CC)c(C(=O)SCC)c1CCC", "note": "[MRS1523, 5-propyl-2-ethyl-4-propyl-3-(ethylsulfanylcarbonyl)-6-phenylpyridine-5-carboxylate]", "values": [{"measurement": "Ki", "setting": "[2]", "value": "518 ± 236", "unit": "nM"}]}
{"smiles": "CNc1ncnc2c1ncn2[C@@H]1O[C@H](CO)[C@@H](O)[C@H]1O", "note": "[N^6-methyladenosine]", "values": [{"measurement": "Ki", "setting": "hA3AR", "value": 9.3, "unit": "nM"}, {"measurement": "Ki", "setting": "rA3AR; rA3AR", "value": 6390, "unit": "nM"}]}
{"smiles": "CCCCC#Cc1nc(NC)c2ncn([C@@H]3O[C@H](CO)[C@@H](O)[C@H]3O)c2n1", "note": "[[^3H]HEMADO, 2-hexyn-1-yl-N^6-methyladenosine]", "values": [{"measurement": "Kd", "setting": "hA3AR", "value": 1.1, "unit": "nM"}, {"measurement": "effect on the rA3AR", "setting": "rA3AR; rA3AR", "value": "no effect"}]}
{"smiles": "CCCn1cc2c(nc(NC(=O)Nc3ccc(OC)cc3)n3nc(-c4ccco4)nc23)n1", "note": "[[^3H]MRE 3008F20, 5-[[(4-methoxyphenyl)amino]carbonyl]amino-8-propyl-2-(2-furyl)-pyrazolo[4,3-e]1,2,4-triazolo[1,5-c]pyrimidine]", "values": [{"measurement": "binding to the mouse A3AR", "setting": "mouse A3AR", "value": "do not bind effectively"}, {"measurement": "binding to the rA3AR", "setting": "rA3AR; rA3AR", "value": "do not bind effectively"}]}
{"smiles": "CCNC(=O)[C@H]1O[C@@H](n2cnc3c(N)ncnc32)[C@H](O)[C@@H]1O", "note": "[[^3H]NECA, 5′-N-ethylcarboxamidoadenosine]", "values": [{"measurement": "binding affinity at the rA3AR", "setting": "rA3AR; rA3AR", "value": "weak"}]}
{"smiles": "CC[C@@H]1CN2C(=O)N(C)c3nc(-c4ccccc4)[nH]c3C2=N1", "note": "[[^3H]PSB-11, (R)-4-methyl-8-ethyl-2-phenyl-imidazo[2,1-i]purin-5-one]", "values": [{"measurement": "binding to the mouse A3AR", "setting": "mouse A3AR", "value": "do not bind effectively"}, {"measurement": "binding to the rA3AR", "setting": "rA3AR; rA3AR", "value": "do not bind effectively"}]}
{"smiles": "CNC(=O)[C@H]1O[C@@H](n2cnc3c(NCc4ccc(N)c(I)c4)ncnc32)[C@H](O)[C@@H]1O", "note": "[[^125I]I-AB-MECA, N^6-(4-amino-3-iodobenzyl)-5′-N-methylcarboxamidoadenosine]", "values": [{"measurement": "Kd", "setting": "rA1AR; read-out: affinity for rA1AR, radioligand affinity, A1", "value": 3.42, "unit": "nM"}, {"measurement": "Kd", "setting": "rA3AR; rat A3AR", "value": "~1", "unit": "nM"}, {"measurement": "Kd", "setting": "rA3AR; read-out: affinity for rA3AR, radioligand affinity, A3", "value": 1.48, "unit": "nM"}]}
{"smiles": "Nc1ccc(CCNc2ncnc3c2ncn3[C@@H]2O[C@H](CO)[C@@H](O)[C@H]2O)cc1I", "note": "[[^125I]I-APNEA, N^6-(4-amino-3-iodophenylethyl)-adenosine]", "values": [{"measurement": "Kd", "setting": "rA1AR; rA1AR", "value": 1.32, "unit": "nM"}, {"measurement": "Kd", "setting": "rA3AR; rA3AR", "value": 15, "unit": "nM"}]}
